Converted amounts (≈) assume the structure as drawn.
What was measured:
Cytochrome P450 3A4 [1] = molecular target: T1, Cytochrome P450 3A4 (Homo sapiens, UniProt P08684); assay: Inhibition of CYP3A4 in human liver using luciferin-IPA as substrate microsome preincubated with compound for 10 mins followed by NADPH addition and measured after 5 mins; format: ADME, microsomes
P-gp (ABCB1) [2] = molecular target: T2, P-gp (ABCB1) (Homo sapiens, UniProt P08183); assay: Inhibition of P-gp in human Caco-2 cells at 0.1 uM in presence of paclitaxel relative to control; format: cell-based; conditions: Caco-2, probe paclitaxel
[3] = molecular target: T3, ATP-dependent translocase ABCB1 (Homo sapiens, UniProt P08183); assay: Inhibition of P-gp in human Caco-2 cells in presence of paclitaxel; format: cell-based
[4] = Metabolic stability in mouse liver microsome assessed as half life; format: ADME; conditions: liver microsomes
Cytochrome P450 2C9 = Cytochrome P450 2C9 (Homo sapiens, UniProt P11712); assay: Inhibition of CYP2C9 (unknown origin) using Diclofenac as substrate; format: ADME
Cytochrome P450 3A4 [5] = molecular target: T1, Cytochrome P450 3A4; assay: Inhibition of CYP3A4 (unknown origin) using Midazolam as substrate; format: ADME
[6] = Tlast in CD-1 mouse at 5 mg/kg, iv measured upto 8 hrs by LC-MS/MS analysis; format: ADME, organism-based; conditions: in vivo
P-gp (ABCB1) [7] = molecular target: T2, P-gp (ABCB1); assay: Inhibition of P-gp in human Caco-2 cells at 5 uM in presence of paclitaxel relative to control; format: cell-based; conditions: Caco-2, probe paclitaxel
Cytochrome P450 2D6 = Cytochrome P450 2D6 (Homo sapiens, UniProt P10635); assay: Inhibition of CYP2D6 (unknown origin) using Bufuralol as substrate; format: ADME
[8] = Inhibition of CYP3A4 in mouse liver using luciferin-IPA as substrate microsome preincubated with compound for 10 mins followed by NADPH addition and measured after 5 mins; format: ADME, microsomes
[9] = molecular target: T3, ATP-dependent translocase ABCB1; assay: Inhibition of P-gp in human MES-SA/Dx5 cells; format: cell-based
[10] = Metabolic stability in human liver microsome assessed as intrinsic clearance; format: ADME; conditions: microsomes
P-gp (ABCB1) [11] = molecular target: T2, P-gp (ABCB1); assay: Inhibition of P-gp in human Caco-2 cells at 0.01 uM in presence of paclitaxel relative to control; format: cell-based; conditions: Caco-2, probe paclitaxel
Cytochrome P450 2C8 = molecular target: T4, Cytochrome P450 2C8 (Homo sapiens, UniProt P10632); assay: Inhibition of CYP2C8 (unknown origin) using Amodiaquine as substrate; format: ADME
T4 sequence (P10632 whole entry): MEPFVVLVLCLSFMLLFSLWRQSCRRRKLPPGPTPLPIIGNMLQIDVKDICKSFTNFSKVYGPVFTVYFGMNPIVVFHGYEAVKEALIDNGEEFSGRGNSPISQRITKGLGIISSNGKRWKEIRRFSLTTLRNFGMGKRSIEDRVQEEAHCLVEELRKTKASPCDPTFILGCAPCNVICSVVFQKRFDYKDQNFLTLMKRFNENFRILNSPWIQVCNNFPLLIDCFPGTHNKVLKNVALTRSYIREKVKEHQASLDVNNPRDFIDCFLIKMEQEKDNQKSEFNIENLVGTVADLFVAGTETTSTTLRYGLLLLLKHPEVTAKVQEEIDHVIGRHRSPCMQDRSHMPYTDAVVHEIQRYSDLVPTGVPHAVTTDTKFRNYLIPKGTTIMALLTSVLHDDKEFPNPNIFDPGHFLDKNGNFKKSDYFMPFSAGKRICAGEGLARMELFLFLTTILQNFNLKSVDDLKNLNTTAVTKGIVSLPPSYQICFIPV

MES-SA/Dx5 = assay: Cytotoxicity against human MES-SA/Dx5 cells at 1.28 uM incubated for 3 days by MTT assay relative to control; format: functional; conditions: time 3 day
Cytochrome P450 2C19 = Cytochrome P450 2C19 (Homo sapiens, UniProt P33261); assay: Inhibition of CYP2C19 (unknown origin) using S-mephenytoin as substrate; format: ADME
[12] = Inhibition of MRP1 (unknown origin) ATPase activity; parameters: species or system Homo sapiens
Cytochrome P450 1A2 = molecular target: T5, Cytochrome P450 1A2 (Homo sapiens, UniProt P05177); assay: Inhibition of CYP1A2 (unknown origin) using Phenacetin as substrate; format: ADME
T5 sequence (P05177 whole entry): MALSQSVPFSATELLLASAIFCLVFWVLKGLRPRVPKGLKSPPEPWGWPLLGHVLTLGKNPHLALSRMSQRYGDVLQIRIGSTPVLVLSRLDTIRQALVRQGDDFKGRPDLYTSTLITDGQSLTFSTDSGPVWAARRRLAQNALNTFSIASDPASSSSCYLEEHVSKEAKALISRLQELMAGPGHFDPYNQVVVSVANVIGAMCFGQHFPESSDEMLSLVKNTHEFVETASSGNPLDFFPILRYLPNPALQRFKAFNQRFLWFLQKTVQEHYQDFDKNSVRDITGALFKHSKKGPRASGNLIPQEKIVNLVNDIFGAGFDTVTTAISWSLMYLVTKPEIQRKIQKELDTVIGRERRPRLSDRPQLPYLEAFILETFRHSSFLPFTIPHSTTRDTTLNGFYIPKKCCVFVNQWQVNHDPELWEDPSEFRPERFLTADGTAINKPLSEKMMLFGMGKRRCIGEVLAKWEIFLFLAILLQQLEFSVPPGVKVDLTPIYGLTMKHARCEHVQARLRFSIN

[13] = Equilibrium solubility of compound in PBS at pH 7.4; format: physicochemical; conditions: PBS
[14] = molecular target: T3, ATP-dependent translocase ABCB1; assay: Inhibition of P-gp (unknown origin) ATPase activity
[15] = Metabolic stability in rat liver microsome assessed as intrinsic clearance; format: ADME; conditions: microsomes
[16] = Metabolic stability in rat liver microsome assessed as half life; format: ADME; conditions: liver microsomes
P-gp (ABCB1) [17] = molecular target: T2, P-gp (ABCB1); assay: Inhibition of P-gp in human Caco-2 cells at 10 uM in presence of paclitaxel relative to control; format: cell-based; conditions: Caco-2, probe paclitaxel
[18] = C0 in CD-1 mouse at 5 mg/kg, iv measured upto 8 hrs by LC-MS/MS analysis; format: ADME, organism-based; conditions: in vivo
Cytochrome P450 2B6 = molecular target: T6, Cytochrome P450 2B6 (Homo sapiens, UniProt P20813); assay: Inhibition of CYP2B6 (unknown origin) using Bupropion as substrate; format: ADME
T6 sequence (P20813 whole entry): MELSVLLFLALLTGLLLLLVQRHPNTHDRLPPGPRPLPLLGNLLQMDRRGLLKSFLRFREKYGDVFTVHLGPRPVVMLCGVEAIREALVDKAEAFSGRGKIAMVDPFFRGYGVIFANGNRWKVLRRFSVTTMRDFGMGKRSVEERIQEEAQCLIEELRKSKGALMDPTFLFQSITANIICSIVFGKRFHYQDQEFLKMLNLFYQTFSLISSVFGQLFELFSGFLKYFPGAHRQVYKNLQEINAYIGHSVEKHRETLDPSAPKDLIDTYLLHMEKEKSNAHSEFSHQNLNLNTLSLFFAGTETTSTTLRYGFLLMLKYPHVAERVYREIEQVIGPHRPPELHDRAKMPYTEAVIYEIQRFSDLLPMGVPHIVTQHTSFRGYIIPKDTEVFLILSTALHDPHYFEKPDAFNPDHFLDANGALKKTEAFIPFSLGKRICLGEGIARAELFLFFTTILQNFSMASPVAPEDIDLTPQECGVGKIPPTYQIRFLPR

Cytochrome P450 3A4 [19] = molecular target: T1, Cytochrome P450 3A4; assay: Inhibition of CYP3A4 in human Hepatocyte using Luciferin-IPA as substrate; format: ADME, cell-based
[20] = Inhibition of CYP3A4 in rat liver using luciferin-IPA as substrate microsome preincubated with compound for 10 mins followed by NADPH addition and measured after 5 mins; format: ADME, microsomes
[21] = Apparent permeability across basolateral to apical side in human Caco-2 cells assessed as drug recovery; format: ADME, cell-based; conditions: read-out: Drug recovery

T1 sequence (P08684 whole entry): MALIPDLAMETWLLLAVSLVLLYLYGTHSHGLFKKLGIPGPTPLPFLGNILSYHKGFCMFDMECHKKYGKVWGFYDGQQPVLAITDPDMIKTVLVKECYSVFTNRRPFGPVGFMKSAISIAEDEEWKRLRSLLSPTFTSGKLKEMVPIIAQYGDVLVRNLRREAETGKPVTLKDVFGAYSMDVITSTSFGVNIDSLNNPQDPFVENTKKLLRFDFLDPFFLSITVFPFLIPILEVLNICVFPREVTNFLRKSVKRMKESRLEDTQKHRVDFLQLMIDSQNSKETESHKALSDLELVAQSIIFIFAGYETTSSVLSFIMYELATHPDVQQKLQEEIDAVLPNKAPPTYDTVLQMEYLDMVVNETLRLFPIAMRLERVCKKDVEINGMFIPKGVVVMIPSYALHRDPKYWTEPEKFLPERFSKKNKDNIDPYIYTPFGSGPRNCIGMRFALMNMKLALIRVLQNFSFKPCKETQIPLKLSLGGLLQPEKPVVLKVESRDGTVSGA
T3 sequence (P08183 whole entry): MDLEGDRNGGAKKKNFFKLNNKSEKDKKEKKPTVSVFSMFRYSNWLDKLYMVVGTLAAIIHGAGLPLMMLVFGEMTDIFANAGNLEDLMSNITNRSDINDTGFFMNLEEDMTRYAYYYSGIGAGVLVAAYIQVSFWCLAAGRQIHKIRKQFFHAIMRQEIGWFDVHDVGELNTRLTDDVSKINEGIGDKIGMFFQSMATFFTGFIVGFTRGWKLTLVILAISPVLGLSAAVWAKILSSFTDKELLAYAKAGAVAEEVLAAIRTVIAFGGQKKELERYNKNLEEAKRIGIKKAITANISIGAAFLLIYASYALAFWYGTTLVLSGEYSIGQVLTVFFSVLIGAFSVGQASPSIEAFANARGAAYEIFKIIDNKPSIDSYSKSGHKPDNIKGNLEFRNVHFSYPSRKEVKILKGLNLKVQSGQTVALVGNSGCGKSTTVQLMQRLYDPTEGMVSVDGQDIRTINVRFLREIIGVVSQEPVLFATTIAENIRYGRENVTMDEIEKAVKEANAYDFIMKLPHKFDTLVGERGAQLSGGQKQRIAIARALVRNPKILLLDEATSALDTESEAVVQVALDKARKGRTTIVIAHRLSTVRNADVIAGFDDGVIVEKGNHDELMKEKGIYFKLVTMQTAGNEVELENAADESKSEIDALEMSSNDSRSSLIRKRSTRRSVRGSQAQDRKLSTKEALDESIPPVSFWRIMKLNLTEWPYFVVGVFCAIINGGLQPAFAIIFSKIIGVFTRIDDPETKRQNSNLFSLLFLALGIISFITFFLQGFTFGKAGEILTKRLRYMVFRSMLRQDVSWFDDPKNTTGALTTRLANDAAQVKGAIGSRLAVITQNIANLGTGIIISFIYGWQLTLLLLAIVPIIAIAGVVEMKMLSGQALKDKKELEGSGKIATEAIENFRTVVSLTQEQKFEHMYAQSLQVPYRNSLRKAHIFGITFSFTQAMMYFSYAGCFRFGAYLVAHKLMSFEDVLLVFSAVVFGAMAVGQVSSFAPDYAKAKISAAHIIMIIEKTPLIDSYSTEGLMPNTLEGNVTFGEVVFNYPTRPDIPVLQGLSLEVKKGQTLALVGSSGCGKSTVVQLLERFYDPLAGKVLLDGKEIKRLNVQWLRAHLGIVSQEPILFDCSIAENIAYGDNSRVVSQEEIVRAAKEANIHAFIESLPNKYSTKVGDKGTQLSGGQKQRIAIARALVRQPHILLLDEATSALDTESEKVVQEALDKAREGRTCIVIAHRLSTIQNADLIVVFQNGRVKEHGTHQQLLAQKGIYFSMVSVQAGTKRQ
T2 sequence (P08183 whole entry): as above
Cytochrome P450 2C19, sequence (P33261 whole entry): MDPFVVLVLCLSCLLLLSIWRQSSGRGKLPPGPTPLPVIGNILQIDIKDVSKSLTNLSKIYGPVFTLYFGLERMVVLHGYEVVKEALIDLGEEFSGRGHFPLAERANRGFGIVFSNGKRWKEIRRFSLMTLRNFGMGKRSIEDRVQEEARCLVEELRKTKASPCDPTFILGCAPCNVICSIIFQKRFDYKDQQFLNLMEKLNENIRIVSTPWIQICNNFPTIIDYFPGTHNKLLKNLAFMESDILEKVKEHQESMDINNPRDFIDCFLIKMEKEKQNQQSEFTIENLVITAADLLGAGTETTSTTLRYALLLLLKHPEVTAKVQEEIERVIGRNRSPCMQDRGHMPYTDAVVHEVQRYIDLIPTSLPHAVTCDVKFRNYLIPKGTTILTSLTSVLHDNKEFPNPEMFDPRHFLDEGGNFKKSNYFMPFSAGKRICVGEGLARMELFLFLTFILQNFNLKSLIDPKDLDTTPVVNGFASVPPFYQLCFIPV
Cytochrome P450 2C9, sequence (P11712 whole entry): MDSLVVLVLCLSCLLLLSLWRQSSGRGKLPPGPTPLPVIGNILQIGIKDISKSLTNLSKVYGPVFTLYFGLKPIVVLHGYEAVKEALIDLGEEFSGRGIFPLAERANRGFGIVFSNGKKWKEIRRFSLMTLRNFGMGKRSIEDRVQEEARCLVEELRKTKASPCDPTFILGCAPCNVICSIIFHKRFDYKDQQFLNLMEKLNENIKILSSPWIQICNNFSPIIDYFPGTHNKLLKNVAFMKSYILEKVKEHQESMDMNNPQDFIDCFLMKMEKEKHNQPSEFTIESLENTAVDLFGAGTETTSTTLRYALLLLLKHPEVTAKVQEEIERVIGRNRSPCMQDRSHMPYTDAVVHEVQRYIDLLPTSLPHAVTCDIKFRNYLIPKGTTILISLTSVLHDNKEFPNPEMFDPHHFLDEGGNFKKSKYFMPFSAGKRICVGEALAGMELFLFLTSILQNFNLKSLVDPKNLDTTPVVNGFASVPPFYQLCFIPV
Cytochrome P450 2D6, sequence (P10635 whole entry): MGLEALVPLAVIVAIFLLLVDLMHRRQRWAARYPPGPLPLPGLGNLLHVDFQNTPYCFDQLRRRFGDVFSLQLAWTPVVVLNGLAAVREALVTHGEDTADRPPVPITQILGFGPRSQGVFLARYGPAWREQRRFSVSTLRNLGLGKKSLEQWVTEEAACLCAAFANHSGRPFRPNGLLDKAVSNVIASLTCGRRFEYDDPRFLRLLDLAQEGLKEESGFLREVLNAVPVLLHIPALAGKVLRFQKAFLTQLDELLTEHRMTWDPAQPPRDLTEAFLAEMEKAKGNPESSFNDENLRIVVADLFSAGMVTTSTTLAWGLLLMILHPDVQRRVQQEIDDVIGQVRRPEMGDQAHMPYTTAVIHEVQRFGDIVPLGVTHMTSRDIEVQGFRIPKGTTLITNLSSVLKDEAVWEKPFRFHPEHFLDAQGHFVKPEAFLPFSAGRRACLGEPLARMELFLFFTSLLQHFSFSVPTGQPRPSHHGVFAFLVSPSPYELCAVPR

**Q.** For `COc1cc(NC(=O)c2cc(=O)c3ccccc3o2)c(C(=O)Nc2ccc(C3CCN(Cc4cccc(-n5ccnc5)c4)CC3)cc2)cc1OC`, which IC50 (Cytochrome P450 3A4 [1]) is on record?
**A.** The IC50 was 223 nM.

**Q.** What about the inhibition at 0.1 µM (P-gp (ABCB1) [2]) of the same compound?
**A.** The inhibition at 0.1 µM was 89%.

**Q.** And the IC50 [3]?
**A.** Its IC50 is 9 nM.

**Q.** And the half-life [4]?
**A.** The half-life was 37 min.

**Q.** And the IC50 (Cytochrome P450 2C9)?
**A.** The IC50 was 36000 nM.

**Q.** What about the IC50 (Cytochrome P450 3A4 [5]) of the same compound?
**A.** Its IC50 is 140 nM.

**Q.** What about the Tlast [6] of the same compound?
**A.** The Tlast was 4.8 h.

**Q.** And the inhibition at 5 µM (P-gp (ABCB1) [7])?
**A.** Its inhibition at 5 µM is 99%.

**Q.** What about the IC50 (Cytochrome P450 2D6) of the same compound?
**A.** Its IC50 is 69000 nM.

**Q.** And the IC50 [8]?
**A.** The IC50 was 89 nM.

**Q.** What about the EC50 [9] of the same compound?
**A.** The EC50 was 28 nM.

**Q.** What about the CLH [10] of the same compound?
**A.** The CLH was 300 µL/min/mg.

**Q.** What about the inhibition at 0.01 µM (P-gp (ABCB1) [11]) of the same compound?
**A.** The inhibition at 0.01 µM was 54%.

**Q.** What about the IC50 (Cytochrome P450 2C8) of the same compound?
**A.** Its IC50 is 11000 nM.

**Q.** And the Activity (MES-SA/Dx5)?
**A.** The Activity was 0%.

**Q.** What about the IC50 (Cytochrome P450 2C19) of the same compound?
**A.** Its IC50 is 39000 nM.

**Q.** And the IC50 [12]?
**A.** The IC50 was greater than 10000 nM.

**Q.** What about the IC50 (Cytochrome P450 1A2) of the same compound?
**A.** Its IC50 is greater than 100000 nM.

**Q.** And the solubility thermodynamic [13]?
**A.** The solubility thermodynamic was 0.57 µM (≈ 0.39 µg/mL).

**Q.** And the IC50 [14]?
**A.** The IC50 was 21 nM.

**Q.** And the CLH [15]?
**A.** The CLH was 95 µL/min/mg.

**Q.** And the half-life [16]?
**A.** The half-life was 15 min.

**Q.** And the inhibition at 10 µM (P-gp (ABCB1) [17])?
**A.** The inhibition at 10 µM was 99%.

**Q.** And the C0 at 8 h [18]?
**A.** Its C0 at 8 h is 6540 ng/mL.

**Q.** And the IC50 (Cytochrome P450 2B6)?
**A.** The IC50 was 36000 nM.

**Q.** And the IC50 (Cytochrome P450 3A4 [19])?
**A.** Its IC50 is 1470 nM.

**Q.** What about the IC50 [20] of the same compound?
**A.** Its IC50 is 296 nM.

**Q.** And the recovery [21]?
**A.** The recovery was 82%.
